The text below walks through data of ChEMBL document CHEMBL1201862, “PubChem BioAssay data set” (2004).

Active and inactive are the calls of the source. Bounds are passed on as bounds.

Experiment [1] can be described thus: inhibitors of intracellular T. cruzi replication, confirmation, NIH3T3 host cells, beta-gal luminescence (AID 2044).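 Note: intracellular parasites grown in NIH/3T3 mouse fibroblasts as host cells; luminescent beta-galactosidase reporter signal from transgenic T. cruzi replicating inside host cells; inhibitors lower the luminescence signal.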 In kind it is functional, cell-based.
A short description of experiment [2]: Luminescence Cell-Based Dose Confirmation HTS to Identify Inhibitors of Polyadenylation. In kind it is functional.
The nature of experiment [3]: cytotoxicity toward NIH3T3 fibroblasts, dose response, counter-screen, cell-based, ATP luminescence, mouse fibroblasts (AID 2010).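 Note: cells exposed to compound for about 90 hours before reading.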 The class given is functional.
Experiment [4] deals with DNA repair and recombination protein RAD54-like (Homo sapiens, UniProt Q92698). As to the kind of experiment: inhibitors of human RAD54 branch migration, confirmation, biochemical, fluorescence, cherry-picked samples, dose series (AID 651657). The class given is functional.
Sequence of DNA repair and recombination protein RAD54-like (Q92698 whole entry): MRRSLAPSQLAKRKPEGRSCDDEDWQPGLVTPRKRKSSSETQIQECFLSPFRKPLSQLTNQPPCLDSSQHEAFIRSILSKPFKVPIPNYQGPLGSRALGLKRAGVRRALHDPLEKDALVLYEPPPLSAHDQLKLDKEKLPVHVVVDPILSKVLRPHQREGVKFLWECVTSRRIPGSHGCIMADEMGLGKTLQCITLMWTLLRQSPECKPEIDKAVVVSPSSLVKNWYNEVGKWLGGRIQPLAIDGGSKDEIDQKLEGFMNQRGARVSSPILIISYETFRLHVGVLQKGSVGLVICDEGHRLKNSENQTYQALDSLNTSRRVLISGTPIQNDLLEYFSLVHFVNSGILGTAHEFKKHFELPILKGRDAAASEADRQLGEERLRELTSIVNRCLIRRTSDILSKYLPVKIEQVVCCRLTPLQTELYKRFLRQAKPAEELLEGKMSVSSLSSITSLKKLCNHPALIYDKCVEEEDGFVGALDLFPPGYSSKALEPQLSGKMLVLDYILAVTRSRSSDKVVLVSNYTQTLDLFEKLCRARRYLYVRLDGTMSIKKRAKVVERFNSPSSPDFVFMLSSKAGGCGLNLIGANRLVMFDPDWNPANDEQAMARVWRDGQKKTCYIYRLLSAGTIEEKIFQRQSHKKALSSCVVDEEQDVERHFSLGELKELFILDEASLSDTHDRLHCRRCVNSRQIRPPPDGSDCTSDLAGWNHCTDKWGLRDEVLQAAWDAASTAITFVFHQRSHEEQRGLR
Experiment [5] deals with T1, DNA repair protein RAD52 homolog (Homo sapiens, UniProt P43351).
T1 sequence (P43351 whole entry): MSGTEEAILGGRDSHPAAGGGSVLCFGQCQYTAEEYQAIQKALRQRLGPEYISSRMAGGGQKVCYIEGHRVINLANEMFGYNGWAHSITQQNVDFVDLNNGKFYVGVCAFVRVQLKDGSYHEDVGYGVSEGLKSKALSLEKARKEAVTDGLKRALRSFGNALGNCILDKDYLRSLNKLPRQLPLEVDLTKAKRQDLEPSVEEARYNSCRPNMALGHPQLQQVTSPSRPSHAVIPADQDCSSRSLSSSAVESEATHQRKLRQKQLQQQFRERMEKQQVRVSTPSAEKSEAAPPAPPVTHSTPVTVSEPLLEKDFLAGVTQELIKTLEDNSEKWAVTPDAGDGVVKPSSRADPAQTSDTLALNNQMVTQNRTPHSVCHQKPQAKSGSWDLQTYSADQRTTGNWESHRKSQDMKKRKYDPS
In kind it is functional, biochemical.

The target of experiment [6] is Palmitoyl-protein thioesterase ABHD10, mitochondrial (Mus musculus, UniProt Q6PE15). The experiment can be described thus: Late stage assay provider results from the probe development effort to identify inhibitors of PME-1: fluorescence-based dose response biochemical gel-based competitive Activity-Based Protein Profiling (ABPP) inhibition of ABHD10 Set 2. The class given is functional.
Sequence of Palmitoyl-protein thioesterase ABHD10, mitochondrial (Q6PE15 whole entry): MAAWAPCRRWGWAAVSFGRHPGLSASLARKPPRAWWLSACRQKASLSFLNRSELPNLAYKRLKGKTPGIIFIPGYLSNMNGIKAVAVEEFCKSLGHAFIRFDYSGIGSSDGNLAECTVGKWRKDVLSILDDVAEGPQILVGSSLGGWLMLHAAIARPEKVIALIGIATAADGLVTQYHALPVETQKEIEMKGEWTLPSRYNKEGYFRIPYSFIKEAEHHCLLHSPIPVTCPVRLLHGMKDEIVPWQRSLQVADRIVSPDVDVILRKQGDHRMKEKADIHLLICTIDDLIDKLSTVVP

Experiment [7] deals with Nuclear receptor subfamily 5 group A member 2 (Homo sapiens, UniProt O00482). The class given is functional, cell-based.
Sequence of Nuclear receptor subfamily 5 group A member 2 (O00482 whole entry): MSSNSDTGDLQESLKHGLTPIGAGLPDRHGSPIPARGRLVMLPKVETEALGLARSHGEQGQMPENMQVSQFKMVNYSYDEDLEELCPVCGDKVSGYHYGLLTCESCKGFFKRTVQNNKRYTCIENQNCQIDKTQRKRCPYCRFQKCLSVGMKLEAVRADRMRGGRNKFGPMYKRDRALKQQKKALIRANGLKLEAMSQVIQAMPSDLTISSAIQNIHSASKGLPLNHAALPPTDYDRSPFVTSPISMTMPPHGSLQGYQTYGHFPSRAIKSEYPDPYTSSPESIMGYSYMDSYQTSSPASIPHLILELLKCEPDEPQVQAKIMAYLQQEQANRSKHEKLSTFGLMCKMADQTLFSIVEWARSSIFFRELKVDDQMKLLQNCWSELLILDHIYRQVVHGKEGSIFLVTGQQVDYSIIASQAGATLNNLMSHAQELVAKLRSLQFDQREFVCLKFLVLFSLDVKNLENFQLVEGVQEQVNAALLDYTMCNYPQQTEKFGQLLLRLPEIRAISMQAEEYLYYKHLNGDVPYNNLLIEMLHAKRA
In the next experiment the target is Steroidogenic factor 1 (Homo sapiens, UniProt Q13285). The experiment can be described thus: Counterscreen for inverse agonists of the liver receptor homolog-1 (LRH-1; NR5A2): Luminescence-based cell-based high throughput dose response assay to identify inverse agonists of the Steroidogenic Factor 1 Nuclear Receptor (SF1; NR5A1). In kind it is functional.
Sequence of Steroidogenic factor 1 (Q13285 whole entry): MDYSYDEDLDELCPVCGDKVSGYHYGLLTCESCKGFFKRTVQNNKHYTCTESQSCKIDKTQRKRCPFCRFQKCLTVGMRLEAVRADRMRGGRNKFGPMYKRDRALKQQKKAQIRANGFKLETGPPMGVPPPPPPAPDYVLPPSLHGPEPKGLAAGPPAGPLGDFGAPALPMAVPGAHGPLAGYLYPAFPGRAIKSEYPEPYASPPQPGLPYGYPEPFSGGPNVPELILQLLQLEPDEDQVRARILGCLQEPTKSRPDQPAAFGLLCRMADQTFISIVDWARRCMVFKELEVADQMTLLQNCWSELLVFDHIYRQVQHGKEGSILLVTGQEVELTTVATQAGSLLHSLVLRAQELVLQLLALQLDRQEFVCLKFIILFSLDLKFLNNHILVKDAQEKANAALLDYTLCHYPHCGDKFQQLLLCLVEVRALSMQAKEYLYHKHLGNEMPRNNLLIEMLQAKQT
The nature of experiment [8]: StAR promoter reporter inhibition counter-screen, dose response, counter-screen for LRH-1 inverse agonist project, cell-based, luminescence, luciferase reporter (AID 651969). The class given is functional.
Experiment [9] concerns the target T2, Sentrin-specific protease 1 (Homo sapiens, UniProt Q9P0U3). As to the kind of experiment: potency of human SENP1 inhibitors, dose response, biochemical, kinetic FRET (AID 651697). Particulars: read-out: IC50_Mean. The class given is functional.
Experiment [10] addresses T2, Sentrin-specific protease 1. The experiment can be described thus: Dose response confirmation of small molecule inhibitors of the catalytic domain of the SUMO protease, SENP1 in a FRET assay. In kind it is functional. Conditions: read-out: IC50_Mean.
Experiment [11] concerns the target Heat shock protein HSP 90-alpha (Homo sapiens, UniProt P07900). The class given is functional, organism-based.
For experiment [12], the target named is Hepatocyte nuclear factor 4-alpha (Homo sapiens, UniProt P41235). The class given is functional, cell-based.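 Note: biochemical luminescence-based dose-response counterscreen measuring inhibition of HNF4 dimerization, run alongside a screen for blockers of ABHD5–perilipin-5 interaction; split luciferase complementation of HNF4 fusion proteins in cell lysate measuring dimerization.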
Sequence of Hepatocyte nuclear factor 4-alpha (P41235 whole entry, the tested form may be a part): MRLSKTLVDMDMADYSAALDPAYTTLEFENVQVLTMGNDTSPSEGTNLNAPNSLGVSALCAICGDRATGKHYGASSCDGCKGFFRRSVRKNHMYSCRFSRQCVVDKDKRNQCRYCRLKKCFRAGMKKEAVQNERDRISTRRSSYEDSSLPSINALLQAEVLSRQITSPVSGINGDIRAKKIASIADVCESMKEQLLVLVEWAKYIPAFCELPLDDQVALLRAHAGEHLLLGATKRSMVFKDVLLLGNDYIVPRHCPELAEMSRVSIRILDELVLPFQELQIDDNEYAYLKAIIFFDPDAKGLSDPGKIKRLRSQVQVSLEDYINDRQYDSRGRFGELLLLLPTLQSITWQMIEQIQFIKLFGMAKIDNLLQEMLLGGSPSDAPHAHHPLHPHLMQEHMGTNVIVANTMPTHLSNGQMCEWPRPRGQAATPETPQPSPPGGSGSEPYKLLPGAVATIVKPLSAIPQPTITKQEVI
Experiment [13] concerns Streptococcus sp. 'group A'. The experiment can be described thus: growth inhibition of control SK(-) GAS strain, dose response, counter-screen for streptokinase expression inhibitor project, luminescence, kanamycin, BacTiterGlo, confirmation (AID 1900). In kind it is functional, organism-based.
The test system of another experiment is Streptococcus. As to the kind of experiment: Group A Streptococcus viability loss, dose response, counter-screen for streptokinase expression inhibitor project, luminescence, BacTiterGlo (AID 1915).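 Note: potency for reduction of bacterial viability or growth.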 The class given is functional, organism-based.
In experiment [14] the target is T3, Replicative DNA helicase DnaB (Mycobacterium tuberculosis, UniProt P9WMR3).
T3 sequence (P9WMR3 whole entry): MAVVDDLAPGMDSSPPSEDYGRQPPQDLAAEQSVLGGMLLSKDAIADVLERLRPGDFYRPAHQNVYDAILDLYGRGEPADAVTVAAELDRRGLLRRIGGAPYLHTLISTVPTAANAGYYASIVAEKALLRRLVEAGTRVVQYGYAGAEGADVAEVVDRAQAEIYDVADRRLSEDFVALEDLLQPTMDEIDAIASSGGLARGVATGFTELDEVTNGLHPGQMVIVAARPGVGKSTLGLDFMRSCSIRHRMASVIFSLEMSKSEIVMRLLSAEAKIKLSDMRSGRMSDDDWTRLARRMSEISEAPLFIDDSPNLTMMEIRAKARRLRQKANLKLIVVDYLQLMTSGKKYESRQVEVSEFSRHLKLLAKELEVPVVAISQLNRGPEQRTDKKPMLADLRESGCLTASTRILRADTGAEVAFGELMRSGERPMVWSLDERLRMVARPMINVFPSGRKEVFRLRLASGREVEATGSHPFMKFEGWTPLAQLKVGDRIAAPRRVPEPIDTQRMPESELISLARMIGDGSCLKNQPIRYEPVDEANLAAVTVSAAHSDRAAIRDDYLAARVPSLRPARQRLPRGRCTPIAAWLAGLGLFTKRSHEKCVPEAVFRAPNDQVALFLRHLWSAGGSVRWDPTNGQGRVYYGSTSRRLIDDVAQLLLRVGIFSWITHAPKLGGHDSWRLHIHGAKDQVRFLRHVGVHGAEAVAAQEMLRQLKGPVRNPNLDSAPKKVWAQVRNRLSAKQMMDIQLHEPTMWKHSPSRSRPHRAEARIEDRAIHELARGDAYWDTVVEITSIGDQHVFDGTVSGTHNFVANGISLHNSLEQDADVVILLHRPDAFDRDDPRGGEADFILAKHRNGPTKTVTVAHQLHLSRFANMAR
As to the kind of experiment: DnaB intein splicing inhibitors, dose response, biochemical, cell-free fluorescence (AID 449749). In kind it is functional.

The target in experiment [15] is T4, Apoptotic protease-activating factor 1 (Homo sapiens, UniProt O14727).
T4 sequence (O14727 whole entry): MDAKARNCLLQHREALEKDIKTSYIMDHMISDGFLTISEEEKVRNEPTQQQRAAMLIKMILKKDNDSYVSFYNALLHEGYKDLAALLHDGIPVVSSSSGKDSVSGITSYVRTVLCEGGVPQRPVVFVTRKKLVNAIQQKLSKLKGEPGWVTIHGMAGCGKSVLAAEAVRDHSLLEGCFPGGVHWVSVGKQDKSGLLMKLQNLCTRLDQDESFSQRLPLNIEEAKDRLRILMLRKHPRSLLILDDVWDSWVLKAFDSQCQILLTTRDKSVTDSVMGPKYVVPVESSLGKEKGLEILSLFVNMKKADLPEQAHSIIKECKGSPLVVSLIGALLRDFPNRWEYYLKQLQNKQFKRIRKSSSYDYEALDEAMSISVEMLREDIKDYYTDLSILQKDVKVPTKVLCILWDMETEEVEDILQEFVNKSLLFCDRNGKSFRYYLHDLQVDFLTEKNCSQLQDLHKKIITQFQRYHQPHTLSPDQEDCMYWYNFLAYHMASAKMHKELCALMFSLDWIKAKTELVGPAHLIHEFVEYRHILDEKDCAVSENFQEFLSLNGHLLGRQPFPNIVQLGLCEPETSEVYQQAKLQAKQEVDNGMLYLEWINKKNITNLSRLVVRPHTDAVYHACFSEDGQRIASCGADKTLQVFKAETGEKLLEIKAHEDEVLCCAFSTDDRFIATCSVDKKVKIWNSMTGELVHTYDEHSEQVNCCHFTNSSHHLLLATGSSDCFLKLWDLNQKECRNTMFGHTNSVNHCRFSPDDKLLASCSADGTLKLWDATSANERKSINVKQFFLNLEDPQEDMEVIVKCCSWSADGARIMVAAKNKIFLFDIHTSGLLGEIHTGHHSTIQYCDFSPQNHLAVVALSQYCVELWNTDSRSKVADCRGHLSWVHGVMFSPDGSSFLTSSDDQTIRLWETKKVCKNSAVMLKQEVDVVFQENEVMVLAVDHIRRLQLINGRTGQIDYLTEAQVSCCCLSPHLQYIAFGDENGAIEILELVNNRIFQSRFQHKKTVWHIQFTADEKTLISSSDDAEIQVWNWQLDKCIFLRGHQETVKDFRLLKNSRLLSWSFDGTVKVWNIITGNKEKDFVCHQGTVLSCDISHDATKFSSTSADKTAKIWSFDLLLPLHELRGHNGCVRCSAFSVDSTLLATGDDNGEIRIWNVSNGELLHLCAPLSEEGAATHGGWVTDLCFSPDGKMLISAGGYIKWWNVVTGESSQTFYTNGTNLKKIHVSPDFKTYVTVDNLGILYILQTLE
The class given is functional.

For a further experiment, the target named is T5, Protein RecA (Mycobacterium tuberculosis, UniProt P9WHJ3).
T5 sequence (P9WHJ3 whole entry): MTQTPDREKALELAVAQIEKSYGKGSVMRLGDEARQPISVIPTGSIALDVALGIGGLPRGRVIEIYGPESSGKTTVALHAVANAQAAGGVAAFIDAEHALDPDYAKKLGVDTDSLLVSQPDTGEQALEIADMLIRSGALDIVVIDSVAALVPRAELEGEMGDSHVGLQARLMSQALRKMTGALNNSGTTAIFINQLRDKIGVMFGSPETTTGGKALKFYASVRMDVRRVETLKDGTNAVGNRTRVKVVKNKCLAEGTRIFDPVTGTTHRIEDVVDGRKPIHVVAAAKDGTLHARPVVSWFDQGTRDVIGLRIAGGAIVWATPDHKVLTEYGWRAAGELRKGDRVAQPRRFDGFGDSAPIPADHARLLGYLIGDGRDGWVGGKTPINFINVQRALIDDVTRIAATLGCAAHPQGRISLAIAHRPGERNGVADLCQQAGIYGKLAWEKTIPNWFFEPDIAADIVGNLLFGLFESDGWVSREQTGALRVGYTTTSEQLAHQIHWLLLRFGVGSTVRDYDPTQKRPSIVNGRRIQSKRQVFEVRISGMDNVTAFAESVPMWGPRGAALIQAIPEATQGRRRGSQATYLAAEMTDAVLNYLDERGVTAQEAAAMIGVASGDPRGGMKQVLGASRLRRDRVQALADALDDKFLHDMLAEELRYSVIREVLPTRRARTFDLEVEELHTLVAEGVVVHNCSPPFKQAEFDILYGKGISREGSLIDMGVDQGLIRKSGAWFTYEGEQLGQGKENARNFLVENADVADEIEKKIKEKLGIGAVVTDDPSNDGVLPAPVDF
As to the kind of experiment: Fluorescence Cell-Free Homogeneous Dose Retest to Identify Inhibitors of RecA-Intein Splicing Activity. [Related pubchem assays (depositor defined):AID2097, AID2223, AID489010, AID492950]. The class given is functional.

The subject of the next experiment is INS1. As to the kind of experiment: beta cell apoptosis inhibitors, cytokine rescue, dose response, luminescence, retest (AID 449756).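 Note: cell death triggered by IL-1 beta plus TNF-alpha plus IFN-gamma mixture; protective hits raise ATP signal compared with cytokine alone wells.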 In kind it is functional, cell-based. Conditions: Rattus norvegicus.
The nature of experiment [16]: AlphaScreen signal interference compounds, dose response, artefact control for ARNT-TACC3 interaction inhibitor project, biochemical, luminescence, cherry-pick (AID 651705).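 Note: AlphaScreen bead proximity signal that flags compounds interfering with the detection technology; potency reflects signal decrease which marks the compound as an assay artifact.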 The class given is functional.
Experiment [17] can be described thus: Fluorescence-based cell-based high throughput dose response assay for inhibitors of the interaction of nucleotide-binding oligomerization domain containing 2 (NOD2) and the receptor-interacting serine-threonine kinase 2 (RIPK2). In kind it is functional. Conditions: Homo sapiens.
Experiment [18] deals with T6, Mitochondrial peptide methionine sulfoxide reductase (Bos taurus, UniProt P54149).
T6 sequence (P54149 whole entry): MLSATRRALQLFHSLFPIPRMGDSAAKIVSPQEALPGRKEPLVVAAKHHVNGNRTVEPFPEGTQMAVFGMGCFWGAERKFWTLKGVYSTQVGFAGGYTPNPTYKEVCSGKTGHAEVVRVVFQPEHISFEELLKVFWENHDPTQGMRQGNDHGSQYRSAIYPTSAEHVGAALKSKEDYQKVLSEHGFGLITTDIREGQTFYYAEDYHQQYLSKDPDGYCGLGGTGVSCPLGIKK
The class given is functional.

T2 sequence (Q9P0U3 whole entry, the tested form may be a part): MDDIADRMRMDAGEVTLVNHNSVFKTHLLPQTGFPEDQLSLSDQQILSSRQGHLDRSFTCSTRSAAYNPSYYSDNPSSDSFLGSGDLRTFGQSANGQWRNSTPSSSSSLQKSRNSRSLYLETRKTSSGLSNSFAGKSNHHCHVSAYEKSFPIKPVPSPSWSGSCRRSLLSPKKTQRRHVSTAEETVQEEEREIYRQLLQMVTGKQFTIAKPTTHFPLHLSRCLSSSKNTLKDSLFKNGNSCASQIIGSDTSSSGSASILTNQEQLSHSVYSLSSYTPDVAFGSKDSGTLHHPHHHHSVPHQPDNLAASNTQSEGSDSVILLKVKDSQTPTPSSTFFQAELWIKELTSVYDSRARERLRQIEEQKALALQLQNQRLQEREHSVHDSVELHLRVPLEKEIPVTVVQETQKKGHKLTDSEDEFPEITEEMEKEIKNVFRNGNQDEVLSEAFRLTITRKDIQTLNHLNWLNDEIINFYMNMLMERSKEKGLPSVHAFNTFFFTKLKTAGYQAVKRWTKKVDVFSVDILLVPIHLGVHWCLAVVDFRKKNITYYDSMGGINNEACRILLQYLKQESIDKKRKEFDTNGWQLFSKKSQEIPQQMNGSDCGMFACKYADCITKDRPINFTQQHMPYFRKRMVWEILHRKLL

As for `COc1ccc(OC)c(Nc2nc(NCCO)c3ccccc3n2)c1`, the results for the EC50 in experiment [1], in experiment [2] and in [3] were 2.1 µM (active), > 120 µM (not active) and > 30 µM (not active), respectively. The AC50 is 11.6 µM (active) in [4] and 4.32 µM (active) in experiment [5].

As for `CCOC(=O)N1C(=O)[C@@](CC)(c2cccc(C)c2)N1C(=O)OCC`, the IC50 in experiment [6] is 0.06 µM (active).

For `COc1ccc(OC)c(NC(=O)c2ccccc2NC(=O)c2ccco2)c1`, the IC50 was 24 µM (inactive) in experiment [7], 11.4 µM (inactive) at Steroidogenic factor 1 and 35.9 µM (inactive) in experiment [8].

For the compound `O=C1c2cc(CO)cc(O)c2C(=O)c2c(O[C@@H]3OC(CO)[C@@H](O)[C@@H](O)[C@@H]3O)cccc21` (some centres not stated), the values for the IC50 in experiment [9] and in experiment [10] were 22.1 µM (inactive) and 17.4 µM (active), respectively.

Turning to `CC1=CC2C(C(O)CC3(C)C2CC(C)C32OCOC23COCO3)C2(C)CC(C=O)=C(O)C=C12` (configuration not stated), the AC50 in experiment [11] is 4.34 µM (active). In addition, the IC50 in experiment [12] is 11 µM (inactive).

On to `Cc1[nH]n(-c2ccccc2)c(=O)c1/C=N\NC(=O)C1COc2ccccc2O1` (configuration not stated), for which the EC50 in [13] was 1.36 µM (active); with Streptococcus it was 8.94 µM (active); on Protein RecA it was 17.5 µM (active). Moreover, the AC50 in experiment [14] was 40.9 µM (active); with INS1, 5.03 µM (active); in experiment [16], 104 µM (active). Further, the IC50 in experiment [15] was 8.83 µM (active).

For `Cn1cnc([N+](=O)[O-])c1S(=O)(=O)Oc1ccc(Cl)cc1`, the IC50 in [17] was 4.09 µM (active); in experiment [18], 42.8 µM (inactive).
